Measured values: patent publication US20260137701A1, “CHOLESTENOIC ACID (CA) AND A SULFATED DERIVATIVE THEREOF, 3[BETA]-SULFATE-5-CHOLESTENOIC ACID (CA3S), AS ENDOGENOUS EPIGENETIC REGULATORS” (priority 2022, published 2026)

System: HepG-2 cells
Test: Whole genome bisulfite sequencing (WGBS), differentially methylated regions
Format: cell-based, human
Conditions: for DMR (Methylation %) UQCRC1 promoter region / DMR (Methylation %) VDAC2 promoter region / number of DMRs in promoter region, hyper-methylated / number of DMRs in promoter region, hypo-methylated / number of DMRs in promoter region, total / DMR (Methylation %) ADRA1A promoter region / DMR (Methylation %) ADRA1B promoter region / DMR (Methylation %) ADRA1 promoter region / DMR (Methylation %) BCL6 promoter region / DMR (Methylation %) CACNA1D promoter region / DMR (Methylation %) CALML3 promoter region / DMR (Methylation %) CALML4 promoter region / DMR (Methylation %) CAMKK2 promoter region / DMR (Methylation %) COX7B promoter region / DMR (Methylation %) COX8A promoter region / DMR (Methylation %) CPT1A promoter region / DMR (Methylation %) CPT1C promoter region / DMR (Methylation %) CREB3L4 promoter region / DMR (Methylation %) CYP1A1 promoter region / DMR (Methylation %) ESR2 promoter region / DMR (Methylation %) FBP1 promoter region / DMR (Methylation %) FGF1 promoter region / DMR (Methylation %) FGF8 promoter region / DMR (Methylation %) FGFR2 promoter region / DMR (Methylation %) LDHA promoter region / DMR (Methylation %) LDHAL6A promoter region / DMR (Methylation %) LDHC promoter region / DMR (Methylation %) LEP promoter region / DMR (Methylation %) MIR29A promoter region / DMR (Methylation %) MIRLET7B promoter region / DMR (Methylation %) MTOR promoter region / DMR (Methylation %) NTRK3 promoter region / DMR (Methylation %) PDHA2 promoter region / DMR (Methylation %) PDHB promoter region / DMR (Methylation %) PHKG1 promoter region / DMR (Methylation %) PPARG promoter region / DMR (Methylation %) SDHA promoter region / DMR (Methylation %) SDHB promoter region / DMR (Methylation %) SPHK2 promoter region: 20 μM CA
Protocol: After culturing HepG-2 cells in DMEM medium with HG for 72 hours followed by treating with 20 μM CA for 0, 3, 6, 12, and 24 hours, genomic DNA from 5×10^7 cells were extracted using QIAamp® DNA Mini Kit (QIAGEN, Hilden, Germany). Each sample, 6 μg, was sent to CD Genomics Co., Ltd (New York, USA) for analysis of WGBS. Total RNA was isolated using the Promega SV total RNA isolation system (Madison, WI, USA) with DNase treatment. Each sample, 2 μg, were sent to CD Genomics Co., Ltd (New York, USA) for analysis of RNA sequencing. The same samples, 2 μg, was used for the first-strand cDNA synthesis as recommended by the manufacturer (Invitrogen, Carlsbad, CA). RT-qPCR was performed using SYBR Green as the indicator on ABI 7500 Fast Real-Time PCR System (Applied Biosystems, Foster City, CA). Amplifications of j-actin or GAPDH were used as internal controls. Relative messenger RNA (mRNA) expression was quantified with the comparative cycle threshold (Ct) method using a sutiable primer set and was expressed as 2-ΔΔCt as described previously.
Each sample, 1 μg of genomic DNA was fragmented by sonication to a mean size of approximately 200-400 bp, and subsequently used for WGBS library construction using Acegen Bisulfite-Seq Library Prep Kit (Acegen) following the manufacturer's instructions. The methylated adapter-ligated DNAs were purified using 0.8×Agencourt AMPure™ XP magnetic beads and subjected to bisulfite conversion by ZYMO EZ DNA Methylation-Gold™ Kit (Zymo Research Corporation, CA, USA). The converted DNAs were then amplified using 25 μl KAPA HiFi™ HotStart Uracil+ ReadyMix (2×) and 8-bp index primers with a final concentration of 1 μM each. The constructed WGBS libraries were then analyzed by Agilent 2100 Bioanalyzer and quantified by a Qubit fluorometer with Quant-iT™ dsDNA HS Assay Kit (Invitrogen), and finally sequenced on Illumina® Hiseq X™ Ten sequencer. After the preparation of the library, Qubit 2.0 and Agilent 2100 were used respectively to detect the concentration of the library and the Insert Size, and the effective concentration (>2 nM) of the library was quantitatively determined by Q-PCR to ensure the library quality.
Samples were sequenced using the Illumina® HiSeq sequencing platform. Raw data generated on the sequencing platform contained a small percentage of low-quality data, which was then filtered to get high-quality data. Bsmap software was used to perform alignments of bisulfite-treated reads to a reference genome (GRCh37). Metilene software was used to identify differentially methylated regions (DMRs). DAVID software (website located at david.ncifcrf.gov/) was used to test the statistical enrichment of DMR related genes in the Gene Ontology (GO) and Kyoto Encyclopedia of Genes and Genomes (KEGG) pathways.

Structure (SMILES): CC(CCC[C@@H](C)[C@H]1CC[C@H]2[C@@H]3CC=C4C[C@@H](O)CC[C@]4(C)[C@H]3CC[C@]12C)C(=O)O (stereo partly drawn) [CA, 3β-hydroxy-5-cholestenoic acid]
- DMR (Methylation %) UQCRC1 promoter region (6 h): −56.12%
- DMR (Methylation %) VDAC2 promoter region (6 h): −40.06%
- number of DMRs in promoter region, hyper-methylated (6 hours): 1,749
- number of DMRs in promoter region, hypo-methylated (6 hours): 22,621
- number of DMRs in promoter region, total (6 hours): 24,370
- DMR (Methylation %) ADRA1A promoter region (12 h): −30.57%
- DMR (Methylation %) ADRA1B promoter region (12 h): 0%
- DMR (Methylation %) ADRA1 promoter region (12 h): −30.57%
- DMR (Methylation %) BCL6 promoter region (12 h): −33.25%
- DMR (Methylation %) CACNA1D promoter region (12 h): 0%
- DMR (Methylation %) CALML3 promoter region (12 h): −30.32%
- DMR (Methylation %) CALML4 promoter region (12 h): −21.6%
- DMR (Methylation %) CAMKK2 promoter region (12 h): −23.88%
- DMR (Methylation %) COX7B promoter region (12 h): 0%
- DMR (Methylation %) COX8A promoter region (12 h): 0%
- DMR (Methylation %) CPT1A promoter region (12 h): −16.93%
- DMR (Methylation %) CPT1C promoter region (12 h): −24.72%
- DMR (Methylation %) CREB3L4 promoter region (12 h): 0%
- DMR (Methylation %) CYP1A1 promoter region (12 h): 0%
- DMR (Methylation %) ESR2 promoter region (12 h): −28.97%
- DMR (Methylation %) FBP1 promoter region (12 h): 0%
- DMR (Methylation %) FGF1 promoter region (12 h): −48.58%
- DMR (Methylation %) FGF8 promoter region (12 h): −37.87%
- DMR (Methylation %) FGFR2 promoter region (12 h): 0%
- DMR (Methylation %) LDHA promoter region (12 h): −36.43%
- DMR (Methylation %) LDHAL6A promoter region (12 h): 0%
- DMR (Methylation %) LDHC promoter region (12 h): 0%
- DMR (Methylation %) LEP promoter region (12 h): −62.7%
- DMR (Methylation %) MIR29A promoter region (12 h): −22.09%
- DMR (Methylation %) MIRLET7B promoter region (12 h): 0%
- DMR (Methylation %) MTOR promoter region (12 h): −27.13%
- DMR (Methylation %) NTRK3 promoter region (12 h): −53.95%
- DMR (Methylation %) PDHA2 promoter region (12 h): −28.93%
- DMR (Methylation %) PDHB promoter region (12 h): 0%
- DMR (Methylation %) PHKG1 promoter region (12 h): −24.54%
- DMR (Methylation %) PPARG promoter region (12 h): −27.41%
- DMR (Methylation %) SDHA promoter region (12 h): 0%
- DMR (Methylation %) SDHB promoter region (12 h): −38.35%
- DMR (Methylation %) SPHK2 promoter region (12 h): −18.02%
- DMR (Methylation %) UQCRC1 promoter region (12 h): −23.36%
- DMR (Methylation %) VDAC2 promoter region (12 h): −19.71%
- number of DMRs in promoter region, hyper-methylated (12 hours): 1,891
- number of DMRs in promoter region, hypo-methylated (12 hours): 23,813
- number of DMRs in promoter region, total (12 hours): 25,704
- DMR (Methylation %) ADRA1A promoter region (24 h): −30.81%
- DMR (Methylation %) ADRA1B promoter region (24 h): 0%
- DMR (Methylation %) ADRA1 promoter region (24 h): −30.81%
- DMR (Methylation %) BCL6 promoter region (24 h): −31.52%
- DMR (Methylation %) CACNA1D promoter region (24 h): 0%
- DMR (Methylation %) CALML3 promoter region (24 h): −26.91%
- DMR (Methylation %) CALML4 promoter region (24 h): −21%
- DMR (Methylation %) CAMKK2 promoter region (24 h): 0%
- DMR (Methylation %) COX7B promoter region (24 h): 0%
- DMR (Methylation %) COX8A promoter region (24 h): −34.15%
- DMR (Methylation %) CPT1A promoter region (24 h): −29.33%
- DMR (Methylation %) CPT1C promoter region (24 h): −24.09%
- DMR (Methylation %) CREB3L4 promoter region (24 h): −35.93%
- DMR (Methylation %) CYP1A1 promoter region (24 h): −27.04%
- DMR (Methylation %) ESR2 promoter region (24 h): −24.69%
- DMR (Methylation %) FBP1 promoter region (24 h): −28.62%
- DMR (Methylation %) FGF1 promoter region (24 h): 0%
- DMR (Methylation %) FGF8 promoter region (24 h): 0%
- DMR (Methylation %) FGFR2 promoter region (24 h): −24.29%
- DMR (Methylation %) LDHA promoter region (24 h): −32.94%
- DMR (Methylation %) LDHAL6A promoter region (24 h): −22.36%
- DMR (Methylation %) LDHC promoter region (24 h): −31.77%
- DMR (Methylation %) LEP promoter region (24 h): 0%
- DMR (Methylation %) MIR29A promoter region (24 h): −26.93%
- DMR (Methylation %) MIRLET7B promoter region (24 h): −24.75%
- DMR (Methylation %) MTOR promoter region (24 h): 0%
- DMR (Methylation %) NTRK3 promoter region (24 h): −53.82%
- DMR (Methylation %) PDHA2 promoter region (24 h): −38.56%
- DMR (Methylation %) PDHB promoter region (24 h): −26.74%
- DMR (Methylation %) PHKG1 promoter region (24 h): −33.52%
- DMR (Methylation %) PPARG promoter region (24 h): −27.57%
- DMR (Methylation %) SDHA promoter region (24 h): −23.5%
- DMR (Methylation %) SDHB promoter region (24 h): 0%
- DMR (Methylation %) SPHK2 promoter region (24 h): −45.29%
- DMR (Methylation %) UQCRC1 promoter region (24 h): −26.32%
- DMR (Methylation %) VDAC2 promoter region (24 h): −26.13%
- number of DMRs in promoter region, hyper-methylated (24 hours): 1,594
- number of DMRs in promoter region, hypo-methylated (24 hours): 26,762
- number of DMRs in promoter region, total (24 hours): 28,356
- number of genes with demethylation of 5 mCpG to CpG in promoter regions (HepG-2 cells): over 7,000
